Among the data in ChEMBL document CHEMBL5233264, “Targeting MYC: From understanding its biology to drug discovery” (Eur J Med Chem, 2021) are Kd, IC50 and ΔTm values, retold here.

Test [1] concerns Calf thymus DNA. Briefly: Binding affinity to calf thymus DNA sequence. The test is classed as nucleic-acid assay, Bos taurus.
For test [2], the system named is HepG2. Kind of test: Anticancer activity against human HepG2 cells. Format: functional, cell-based.
Test [3] has as its target Quadruplex DNA. Briefly: Binding affinity to human MYC G4 DNA sequence. Format: nucleic-acid assay.
The target in test [4] is Bromodomain-containing protein 4 (Homo sapiens, UniProt O60885). Kind of test: Inhibition of BRD4 (unknown origin).
The species entered for test [5] is Homo sapiens. Kind of test: Binding affinity to human telomeric repeat F21T assessed as change in melting temperature at 1 uM by high-throughput FRET melting assay.
For test [6], the species on record is Homo sapiens. Briefly: Binding affinity to c-MYC promoter G4 sequences FmycT (unknown origin) assessed as change in melting temperature at 1 uM by high-throughput FRET melting assay.
The species entered for test [7] is Homo sapiens. Briefly: Binding affinity to double-stranded DNA FdxT (unknown origin) assessed as change in melting temperature at 1 uM by high-throughput FRET melting assay.
Test [8] has as its system HL-60. Briefly: Cytotoxicity against human HL-60 cells measured after 72 hrs by MTT assay. Format: functional, cell-based. The following applies: HL-60, 72 h. Background: Tetrazolium dyes change colour on reduction, which living cells bring about.
The subject of test [9] is 4T1. Kind of test: Anticancer activity against mouse 4T1 cells. The test is classed as functional, cell-based.
In test [10] the target is Quadruplex DNA. Kind of test: Binding affinity to MYC G4-quadruplex DNA (unknown origin) assessed as dissociation constant. Format: nucleic-acid assay.
The nature of test [11]: In vivo inhibition of BRD4 in human MV4-11 cells xenografted in mouse tumor model. Format: functional, organism-based.
A short description of test [12]: Growth inhibition of human Burkitts lymphoma cell. The test is classed as functional, cell-based.
A short description of test [13]: Binding affinity to MYC bHLH Zip (unknown origin) assessed as dissociation constant by microscale thermophoresis assay. More on the design: species or system Homo sapiens.

By Kd is commonly meant the constant that tells how readily two partners part at equilibrium. As a reminder, the IC50 is the concentration needed to halve the response being measured. For orientation: ΔTm means the shift of the melting midpoint relative to a reference.

`CN(C)c1ccc2nc3ccc(N(C)C)cc3[s+]c2c1` [METHYLENE BLUE ANHYDROUS]: the dissociation constant (Kd) in [1] and in test [3] was 200 nM throughout. In [2], this compound yielded a half-inhibitory concentration (IC50) of 6000 nM.

On to `Oc1ccc(Cl)c2cccnc12` [CLOXYQUIN], for which, in test [4], the midpoint of inhibition, the IC50, lay at 6470 nM.

`CCn1cc(C(=O)O)c(=O)c2cc(F)c(N3CCNCC3)cc21` [NORFLOXACIN] had an IC50 in [4] of 980 nM. Compared with the last compound, the IC50 is about 6.6-fold lower.

As for `c1cc2ccc3ccc4nc3c2nc1CNCCCCCCCNC4`, the ΔTm in test [5] was found to be 9.2 °C; in test [6], 3.6 °C; in test [7], 9.2 °C.

`CCS(=O)(=O)Nc1ccc(Oc2ccc(F)cc2F)c(-c2cn(C)c(=O)c3[nH]ccc23)c1` [MIVEBRESIB] had an IC50 in test [4] of 3 nM. This counts as single-digit nanomolar.

In the case of `C[n+]1cc(NC(=O)c2ccc3ccc4ccc(C(=O)Nc5cc6ccccc6[n+](C)c5)nc4c3n2)cc2ccccc21`, the results for the ΔTm in test [5], in test [6] and in test [7] were 17.3 °C, 12 °C and 0 °C, respectively.

`COC(=O)c1ccc(Nc2ccc([N+](=O)[O-])c3nonc23)c(-c2ccc(C)cc2)c1` returned an IC50 in test [8] of 23000 nM.

On to `CN1CCN(c2ccc(-c3nc(-c4nc5ccccc5s4)[nH]c3-c3ccc(N4CCN(C)CC4)cc3)cc2)CC1`, for which the results for the 50% inhibitory concentration (IC50) in test [2] and in test [9] were 4500 nM and 3900 nM, respectively. The dissociation constant (Kd) in test [10] worked out at 2000 nM.

For the compound `CN(CCc1ccc(Br)cc1)c1ccc2nc3ccc(N(C)CCc4ccc(Br)cc4)cc3[s+]c2c1`, the dissociation constant (Kd) in test [1] amounted to 11000 nM; in [3], 70 nM. In test [2], the half-inhibitory concentration (IC50) was found to be 1000 nM.

Take `O=c1oc2c3c4c(cc2cc1-c1nc2ccccc2s1)CCCN4CCC3`: in test [10], the Kd was determined as 2000 nM.

`Cc1noc2c1-c1ccccc1C(c1ccc(Cl)cc1)=N[C@H]2CC(N)=O` [PELABRESIB] came in with an IC50 in [11] of 120 nM.

In test [9], `CN1CCN(c2ccc(-c3nc4cc(F)c(F)cc4nc3-c3ccc(N4CCN(C)CC4)cc3)cc2)CC1` came in with an IC50 of 700 nM. Further, the dissociation constant (Kd) in test [10] was found to be 1300 nM.

As for `CCOc1ccc2nc3cc(/N=N/c4ccc(N)cc4N)ccc3c(N)c2c1`, in [12], the IC50 came to 500 nM. Moreover, in test [13], the Kd worked out at 2000 nM.

In turn, `O=[N+]([O-])c1ccc(Nc2ccccc2-c2ccccc2)c2nonc12` had a half-inhibitory concentration (IC50) in test [8] of 23000 nM.

`CCCCOC(=O)CCN1C(=O)S/C(=C\c2ccc(CC)cc2)C1=O` displayed a half-inhibitory concentration (IC50) in test [8] of 5000 nM.
